Target: T1, 5HT6-human recombinant receptor (Homo sapiens, UniProt P50406)
T1 construct: purchased Receptor Biology; host or cells: HEK-293 cell membranes
Assay: Binding to serotonin receptor 5-HT6 ([3H]-LSD radioligand)
Settings: membranes of HEK-293 cells expressing the receptor; [3H]-LSD 2.7 nM; 60 min at 37° C.
Experimental: Cell membranes of HEK-293 cells expressing the 5HT6-human recombinant receptor were supplied by Receptor Biology. In said membranes the receptor concentration is 2.18 pmol/mg protein and the protein concentration is 9.17 mg/ml. The experimental protocol follows the method of B. L. Roth et al. [B. L. Roth, S. C. Craigo, M. S. Choudhary, A. Uluer, F. J. Monsma, Y. Shen, H. Y. Meltzer, D. R. Sibley: Binding of Typical and Atypical Antipsychotic Agents to 5-Hydroxytryptamine-6 and Hydroxytryptamine-7 Receptors. The Journal of Pharmacology and Experimental Therapeutics, 1994, 268, 1403] with the following slight changes. The respective part of the literature description is hereby incorporated by reference and forms part of the disclosure.
The commercial membrane is diluted (1:40 dilution) with the binding buffer: 50 mM Tris-HCl, 10 mM MgCl2, 0.5 mM EDTA (pH 7.4). The radioligand used is [^3H]-LSD at a concentration of 2.7 nM with a final volume of 200 μl. Incubation is initiated by adding 100 μl of membrane suspension, (≈22.9 μg membrane protein), and is prolonged for 60 minutes at a temperature of 37° C. The incubation is ended by fast filtration in a Brandel Cell Harvester through fiber glass filters made by Schleicher & Schuell GF 3362 pretreated with a solution of polyethylenimine at 0.5%. The filters are washed three times with three milliliters of buffer Tris-HCl 50 mM pH 7.4. The filters are transferred to flasks and 5 ml of Ecoscint H liquid scintillation cocktail are added to each flask. The flasks are allowed to reach equilibrium for several hours before counting with a Wallac Winspectral 1414 scintillation counter. Non-specific binding is determined in the presence of 100 μM of serotonin. Tests were made in triplicate. The inhibition constants (Ki, nM) were calculated by non-linear regression analysis using the program EBDA/LIGAND described in Munson and Rodbard, Analytical Biochemistry, 1980, 107, 220, the respective part of which is hereby incorporated by reference and forms part of the disclosure.
The binding of the substituted indazolyl sulfonamide or 2,3-dihydro-indolyl sulfonamide compounds to the 5-HT6 receptor was determined as described above.

T1 sequence (P50406 whole entry): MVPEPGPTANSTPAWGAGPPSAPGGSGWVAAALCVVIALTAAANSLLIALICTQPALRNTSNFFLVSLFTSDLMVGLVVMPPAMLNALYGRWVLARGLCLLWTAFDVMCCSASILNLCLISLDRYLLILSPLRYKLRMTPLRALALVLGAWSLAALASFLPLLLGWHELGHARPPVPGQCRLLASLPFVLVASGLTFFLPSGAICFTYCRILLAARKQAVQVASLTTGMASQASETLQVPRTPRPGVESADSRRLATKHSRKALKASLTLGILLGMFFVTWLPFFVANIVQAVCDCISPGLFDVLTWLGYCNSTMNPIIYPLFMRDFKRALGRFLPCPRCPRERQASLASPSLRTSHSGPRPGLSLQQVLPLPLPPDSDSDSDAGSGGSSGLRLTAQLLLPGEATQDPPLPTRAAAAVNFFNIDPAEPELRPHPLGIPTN

Row | Ki [nM] | Compound
1 | 121 | Cc1c(S(=O)(=O)Nc2ccc3[nH]nc(C4CCN(C)CC4)c3c2)sc2ccc(Cl)cc12 [Example 4, 5-chloro-3-methyl-benzo[b]thiophene-2-sulfonic acid [3-(1-methyl-piperidin-4-yl)-1H-indazol-5-yl]-amide]
2 | 72.6 | CN(C)CCn1ncc2ccc(NS(=O)(=O)c3ccc4ccccc4c3)cc21 [Example 1, N-(1-(2-(dimethylamino)ethyl)-1H-indazol-6-yl)napthalene-2-sulfonamide]
3 | 16.4 | Cc1c(S(=O)(=O)Nc2ccc3cnn(CCN(C)C)c3c2)sc2ccc(Cl)cc12 [Example 2, 5-chloro-N-(1-(2-(dimethylamino)ethyl)-1H-indazol-6-yl)-3-methylbenzo[b]thiophene-2-sulfonamide]

Row | Compound | Ki [nM]
4 | CN(C)CCN1CCc2ccc(NS(=O)(=O)c3c(Cl)nc4sccn34)cc21 [Example 9] | 15.8

— patent US20090005417A1, “Substituted Indazolyl Sulfonamide and 2,3-Dihydro-Indolyl Sulfonamide Compounds, their Preparation and Use in Medicaments” (LABORATORIOS DEL DR. ESTEVE S.A., priority 2004, published 2009)
